Laboratory results: ChEMBL document CHEMBL1134738, “Alpha-ketoester-based photobiological switches: synthesis, peptide chain extension and assay against alpha-chymotrypsin” (Bioorg Med Chem Lett, 2001)

Assays:
Chymotrypsinogen A [1] = biological target: T1, Chymotrypsinogen A (Bos taurus, UniProt P00766); assay: Inhibition constant for inhibition of alpha-chymotrypsin by the UV light
Chymotrypsinogen A [2] = biological target: T1, Chymotrypsinogen A; assay: Inhibition constant for inhibition of alpha-chymotrypsin by the ambient light

Row | Ki (Chymotrypsinogen A [1]) [nM] | Ki (Chymotrypsinogen A [2]) [nM] | SMILES
1 | 290 | 770 | COC(=O)C(=O)[C@H](Cc1ccccc1)NC(=O)OCc1ccc(/N=N/c2ccccc2)cc1
2 | 130 | 240 | COC(=O)C(=O)[C@H](Cc1ccccc1)NC(=O)c1ccc(/N=N/c2ccccc2)cc1
